From patent publication US20240116922A1, “IMIDAZO[1,2-A]PYRIDINE DERIVATIVES AS IRAK4 INHIBITORS AND THEIR USE IN THE TREATMENT OF DISEASE” (BIOGEN MA INC., priority 2020, published 2024)
Values after ≈ are worked out from the molar mass of the structure shown. Structures can show the parent of a compound that is named as a salt.

What was measured:
MDR1 = MDR1 (Homo sapiens (Human), UniProt P08183); assay: in vitro; conditions: MDCK-MDR1
[1] = Kinetic solubility assay (CLND), pH 6.8; format: physicochemical; conditions: potassium phosphate buffer pH 6.8, 2% DMSO, 24 hours at ambient temperature; for solubility kinetic at 24 h: aqueous buffer, kinetic from dmso stock
IRAK4 = IRAK4 (Homo sapiens (Human), UniProt Q9NWZ3); assay: IRAK4 MSD biochemical assay (2-hour 1 mM ATP); conditions: 0.1 nM IRAK4, 1 mM ATP, 2 hour at room temperature
[2] = Kpuu assay (in vivo brain-to-plasma unbound partition); conditions: brain (unbound) versus plasma (unbound); intravenous infusion 4 to 24 h; unbound brain/plasma ratio; read-out: Brain Kpu, u
[3] = biological target: Human MDR1 transfected MDCK cells (Homo sapiens (Human), UniProt P08183); assay: MDR1-MDCK assay; conditions: 1 μM test concentration, 120 minutes incubation
Chain of Human MDR1 transfected MDCK cells (P08183 whole entry): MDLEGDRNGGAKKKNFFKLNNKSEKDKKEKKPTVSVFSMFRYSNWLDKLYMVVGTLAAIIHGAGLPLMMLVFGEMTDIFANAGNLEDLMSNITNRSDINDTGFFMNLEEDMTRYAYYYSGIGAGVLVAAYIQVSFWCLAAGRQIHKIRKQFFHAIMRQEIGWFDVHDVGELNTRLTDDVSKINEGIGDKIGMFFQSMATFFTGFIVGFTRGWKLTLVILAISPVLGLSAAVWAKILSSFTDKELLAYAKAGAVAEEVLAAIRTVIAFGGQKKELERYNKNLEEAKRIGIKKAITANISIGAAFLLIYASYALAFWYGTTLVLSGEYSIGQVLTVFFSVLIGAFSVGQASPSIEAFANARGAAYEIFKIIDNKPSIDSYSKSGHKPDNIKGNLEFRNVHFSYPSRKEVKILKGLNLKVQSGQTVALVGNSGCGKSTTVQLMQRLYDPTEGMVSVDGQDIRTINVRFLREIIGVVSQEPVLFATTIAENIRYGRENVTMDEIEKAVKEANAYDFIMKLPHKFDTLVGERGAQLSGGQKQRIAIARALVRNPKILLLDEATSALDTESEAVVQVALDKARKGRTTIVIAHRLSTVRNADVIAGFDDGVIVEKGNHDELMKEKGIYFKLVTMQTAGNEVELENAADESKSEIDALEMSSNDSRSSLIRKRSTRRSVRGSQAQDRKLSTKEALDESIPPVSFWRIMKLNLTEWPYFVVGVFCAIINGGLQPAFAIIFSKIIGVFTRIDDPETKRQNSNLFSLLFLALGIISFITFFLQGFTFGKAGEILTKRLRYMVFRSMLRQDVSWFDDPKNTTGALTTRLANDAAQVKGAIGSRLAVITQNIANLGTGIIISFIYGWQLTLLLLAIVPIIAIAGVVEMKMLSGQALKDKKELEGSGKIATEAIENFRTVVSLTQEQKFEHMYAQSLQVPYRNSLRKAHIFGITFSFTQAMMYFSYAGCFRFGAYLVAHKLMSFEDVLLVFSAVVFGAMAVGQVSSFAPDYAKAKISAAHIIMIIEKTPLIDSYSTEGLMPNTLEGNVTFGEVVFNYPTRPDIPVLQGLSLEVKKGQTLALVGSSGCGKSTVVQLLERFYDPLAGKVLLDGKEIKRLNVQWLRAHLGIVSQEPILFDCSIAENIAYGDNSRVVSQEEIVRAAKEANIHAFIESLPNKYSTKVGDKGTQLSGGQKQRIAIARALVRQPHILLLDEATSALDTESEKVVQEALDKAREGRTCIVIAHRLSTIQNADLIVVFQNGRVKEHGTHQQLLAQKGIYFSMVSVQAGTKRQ

Chain of IRAK4 (Q9NWZ3 whole entry, the tested form may be a part): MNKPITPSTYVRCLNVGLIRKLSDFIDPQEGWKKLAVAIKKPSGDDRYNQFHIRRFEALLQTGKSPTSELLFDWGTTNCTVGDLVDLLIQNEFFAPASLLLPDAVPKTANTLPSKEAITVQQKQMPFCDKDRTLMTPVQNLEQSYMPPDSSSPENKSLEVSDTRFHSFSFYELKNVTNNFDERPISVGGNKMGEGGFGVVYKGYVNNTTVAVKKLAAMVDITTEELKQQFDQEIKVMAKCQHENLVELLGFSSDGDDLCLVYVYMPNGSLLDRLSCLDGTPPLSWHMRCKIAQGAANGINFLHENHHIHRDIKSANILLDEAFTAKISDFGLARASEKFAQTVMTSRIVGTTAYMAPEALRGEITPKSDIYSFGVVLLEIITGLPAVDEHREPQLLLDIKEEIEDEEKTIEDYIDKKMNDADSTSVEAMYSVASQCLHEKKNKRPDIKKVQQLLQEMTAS
Chain of MDR1 (P08183 whole entry): as the sequence (P08183 whole entry) above

SMILES	efflux ratio at 120 min, 1 μM (MDR1)	solubility kinetic at 24 h [1] [mg/mL]	IC50 (IRAK4) [nM]	Kpuu (unbound brain-to-plasma partition coefficient) [2]	MDR1-MDCK Efflux Ratio [3]	pH 6.8 Solubility (ug/mL) [1] [ug/mL]
CC(C)Oc1cc2nc(C34CCC(C)(CC3)OC4)cn2cc1C(=O)Nc1cccn(C2CC2)c1=O [Example 3, N-(1-cyclopropyl-2-oxo-1,2-dihydropyridin-3-yl)-7-isopropoxy-2-(1-methyl-2-oxabicyclo[2.2.2]octan-4-yl)imidazo[1,2-a]pyridine-6-carboxamide]	2.9	0.036 (≈ 75.5 µM)	0.2	0.25		
CC(C)Oc1cc2nc(C34COC(C)(C3)C4)cn2cc1C(=O)Nc1cccn(C2CC2)c1=O [Example 6, N-(1-cyclopropyl-2-oxo-1,2-dihydropyridin-3-yl)-7-isopropoxy-2-(1-methyl-2-oxabicyclo[2.1.1]hexan-4-yl)imidazo[1,2-a]pyridine-6-carboxamide]	7.9	0.058 (≈ 129 µM)	0.1	0.27		
CC(C)Oc1cc2nc(C34COC(CF)(C3)C4)cn2cc1C(=O)Nc1cccn(C2CC2)c1=O [Example 9, N-(1-cyclopropyl-2-oxo-1,2-dihydropyridin-3-yl)-2-(1-(fluoromethyl)-2-oxabicyclo[2.1.1]hexan-4-yl)-7-isopropoxyimidazo[1,2-a]pyridine-6-carboxamide]	9.7	0.0706 (≈ 151 µM)	0.4	0.18		
CC[C@H](C)Oc1cc2nc(C34COC(C)(C3)C4)cn2cc1C(=O)Nc1cccn(C2CC2)c1=O [Example 19, (S)-7-(sec-butoxy)-N-(1-cyclopropyl-2-oxo-1,2-dihydropyridin-3-yl)-2-(1-methyl-2-oxabicyclo[2.1.1]hexan-4-yl)imidazo[1,2-a]pyridine-6-carboxamide]	6	0.047 (≈ 102 µM)	0.5	0.49		
CC12CC(c3cn4cc(C(=O)Nc5cccn(C6CC6)c5=O)c(OC5CCC5)cc4n3)(CO1)C2 [Example 27, 7-cyclobutoxy-N-(1-cyclopropyl-2-oxo-1,2-dihydropyridin-3-yl)-2-(1-methyl-2-oxabicyclo[2.1.1]hexan-4-yl)imidazo[1,2-a]pyridine-6-carboxamide]	4	0.0657 (≈ 143 µM)	0.6	0.42		
O=C(Nc1cccn(C2CC2)c1=O)c1cn2cc(C34COC(C3)C4)nc2nc1OC1CCC1 [Example 36, 2-(2-oxabicyclo[2.1.1]hexan-4-yl)-7-cyclobutoxy-N-(1-cyclopropyl-2-oxo-1,2-dihydropyridin-3-yl)imidazo[1,2-a]pyrimidine-6-carboxamide]			1.7		6.4	20.8
CC[C@H](C)Oc1nc2nc([C@@]34CC[C@@](C)(C3)OC4)cn2cc1C(=O)Nc1cccn(C2CC2)c1=O [Example 49, 7-((S)-sec-butoxy)-N-(1-cyclopropyl-2-oxo-1,2-dihydropyridin-3-yl)-2-((1S,4R)-1-methyl-2-oxabicyclo[2.2.1]heptan-4-yl)imidazo[1,2-a]pyrimidine-6-carboxamide]	3.6	0.0561 (≈ 117 µM)	0.4	0.66		
CC(C)Oc1c(C(=O)Nc2cccn(C3CC3)c2=O)cn2cc(C34COC(C)(C3)C4)nc2c1F [Example 61, N-(1-cyclopropyl-2-oxo-1,2-dihydropyridin-3-yl)-8-fluoro-7-isopropoxy-2-(1-methyl-2-oxabicyclo[2.1.1]hexan-4-yl)imidazo[1,2-a]pyridine-6-carboxamide]	2.8	0.0658 (≈ 141 µM)	2	0.45		
CC(C)Oc1nc2nc(C34CCC(C)(CC3)OC4)cn2cc1C(=O)Nc1cccn(C2CC2)c1=O [Example 77, N-(1-cyclopropyl-2-oxo-1,2-dihydropyridin-3-yl)-7-isopropoxy-2-(1-methyl-2-oxabicyclo[2.2.2]octan-4-yl)imidazo[1,2-a]pyrimidine-6-carboxamide]	2.7	0.0072 (≈ 15.1 µM)	0.3	0.61		
CC(C)Oc1cc2nc(C34CC(C#N)(C3)C4)cn2cc1C(=O)Nc1cccn(C2CC2)c1=O [Example 80, 2-(3-cyanobicyclo[1.1.1]pentan-1-yl)-N-(1-cyclopropyl-2-oxo-1,2-dihydropyridin-3-yl)-7-isopropoxyimidazo[1,2-a]pyridine-6-carboxamide]	4.9	0.0095 (≈ 21.4 µM)	0.3	0.9		
CC(C)Oc1nc2nc(C34COC(C)(C3)C4)cn2cc1C(=O)Nc1cccn(C2CC2(F)F)c1=O (centres unmarked) [Example 84, N-(1-(2,2-difluorocyclopropyl)-2-oxo-1,2-dihydropyridin-3-yl)-7-isopropoxy-2-(1-methyl-2-oxabicyclo[2.1.1]hexan-4-yl)imidazo[1,2-a]pyrimidine-6-carboxamide]	7.4	0.0377 (≈ 77.7 µM)	0.6	0.67		
CC(C)Oc1cc2nc([C@]34CC[C@](C)(C3)OC4)cn2cc1C(=O)Nc1cccn([C@H]2C[C@H]2C)c1=O [Example 180, 7-isopropoxy-2-((1R,4S)-1-methyl-2-oxabicyclo[2.2.1]heptan-4-yl)-N-(1-((1S,2R)-2-methylcyclopropyl)-2-oxo-1,2-dihydropyridin-3-yl)imidazo[1,2-a]pyridine-6-carboxamide trifluoroacetate]	2.6	0.023	0.2	1.58		
